In US8044236B2, “Carboxilic acid derivatives” (Institute of Medicinal Molecular Design, Inc., priority 2006, dated 2011):

How the values were obtained:
[1] = biological target: T1, recombinant human PAI-1 (Homo sapiens, UniProt P05121); experiment: biochemical
Procedure: <Compotion of pH7.4 HEPES Buffer>
(§1) • 0.1 M HEPES • 0.1 M NaCl • […] • 0.1% Polyethylene glycol 8,000 (Hampton Research Corporation) • 2 mM Dimethyldecylphoshine oxide [Apo-10] (Fluka Corporation) [Results]

[2] = biological target: T2, recombinant rat PAI-1 (Rattus norvegicus, UniProt P20961); experiment: biochemical
T2 sequence (P20961 24-402): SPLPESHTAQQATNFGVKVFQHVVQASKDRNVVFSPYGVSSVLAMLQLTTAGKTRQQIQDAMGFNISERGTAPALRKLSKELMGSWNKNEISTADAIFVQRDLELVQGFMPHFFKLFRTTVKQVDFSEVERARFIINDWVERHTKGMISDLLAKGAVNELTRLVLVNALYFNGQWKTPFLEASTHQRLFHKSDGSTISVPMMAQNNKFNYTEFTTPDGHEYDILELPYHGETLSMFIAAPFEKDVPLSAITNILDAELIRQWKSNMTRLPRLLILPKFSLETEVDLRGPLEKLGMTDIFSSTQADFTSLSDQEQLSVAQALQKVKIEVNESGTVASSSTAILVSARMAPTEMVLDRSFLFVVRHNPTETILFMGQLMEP
Procedure: as §1

[3] = tested on: Crlj:CD(SD) rat AV shunt model; experiment: Test Example 5: anti-thrombotic activity (rat AV shunt model); format: in vivo; settings: oral, 10 mg/kg/day for 4 days, mean ± S.E., vehicle 72.7 ± 2.7, *p < 0.05
Procedure: The administration on the 4th day was carried out about 1 hour before the following perfusion start. Put a 6.5 cm silk thread (Matsuda Ika Kogyou; […] On the connected part where the silk thread is through, parafilm was wrapped around to avoid blood leakage. […] Saline was filled in the above catheter, and both ends of the catheter were inserted in right carotid artery and […], respectively, and blood was circulated. 30 minutes later, the catheter was pinched with forceps to stop blood flow, and tube parts where the silk thread is through were cut and removed. The silk thread was carefully removed from the tubes, remaining wet weight was weighed after removing the liquid phase by filter paper, and further subtraction of the weight of the silk thread, gives the thrombus weight. For the thrombus weight in each group, an average value±standard error (S.E.) was calculated. […] For the test, the SAS System Release 8.2 (TS2M0) for Windows (Registered Trademark) (SAS Institute Inc.) and its coorperative system […] Ver. 7.10 (Arm Systex Co. Ltd.) were employed.

[4] = biological target: T1, recombinant human PAI-1; experiment: Test Example 1: human PAI-1 inhibitory activity (tPA fluorogenic substrate, pH7.5 Tris buffer); format: biochemical; set-up: purchased Molecular Innovations, Inc; settings: for Inhibition Rate of Human PAI-1 Activity (%): Tris buffer pH7.5
Procedure: In a 96-well multiplate (black), 1.5 μl of DMSO solution of the present application compound prepared to achieve 80-fold the test concentration (=the final concentration when fluorogenic substrate is added) was diluted with 52.5 μl of pH7.5 Tris buffer. […] Furthermore, 30 μl of 800 IU/ml two-chain tPA (Activity Standard; American diagnostics, inc.) prepared by Tris buffer was added, and the mixed solution was incubated for 15 minutes at room temperature. To this, 30 μl of 400 μM fluorogenic substrate (Pyr-Gly-Arg-MCA; Peptide Institute, Inc.) for tPA prepared by Tris buffer was added and reacted for 30 minutes at room temperature.
<Composition of pH7.5 Tris Buffer)

[5] = read-out: Inhibition Rate of Rat PAI-1 Activity (%)
[6] = pH 7.5, read-out: Inhibition Rate of Human PAI-1 Activity (%)

T1 sequence (P05121 24-402): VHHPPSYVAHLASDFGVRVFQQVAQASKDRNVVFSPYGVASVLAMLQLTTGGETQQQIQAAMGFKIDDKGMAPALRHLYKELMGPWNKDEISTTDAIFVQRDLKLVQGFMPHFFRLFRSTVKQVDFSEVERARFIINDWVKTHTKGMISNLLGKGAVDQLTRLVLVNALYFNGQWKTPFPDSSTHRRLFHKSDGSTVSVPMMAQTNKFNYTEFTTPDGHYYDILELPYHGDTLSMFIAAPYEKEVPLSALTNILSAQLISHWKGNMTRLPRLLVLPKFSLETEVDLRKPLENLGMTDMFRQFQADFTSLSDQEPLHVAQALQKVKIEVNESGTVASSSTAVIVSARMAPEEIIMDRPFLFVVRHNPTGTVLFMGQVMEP

Structure (SMILES)	Inhibition Rate of Human PAI-1 Activity (%) ([4]; compound 5 μM)	Inhibition Rate of Human PAI-1 Activity (%) ([4]; compound 10 μM)	Inhibition Rate of Human PAI-1 Activity (%) ([4]; compound 25 μM)	also measured
CC(C)(C)c1ccc(COc2ccc(-c3ccc(OC(F)(F)F)cc3)cc2CCC(=O)O)cc1 [Compound 5, 3-{4-[4-(tert-butyl)benzyloxy]-4′-(trifluoromethoxy)biphenyl-3-yl}propanoic acid]	–	–	–	IC50 [1]: 1270 nM; IC50 [2]: 2800 nM; Thrombus Weight (mg) [3]: 57.5 ± 5.0* mg
CC(C)(C)c1ccc(COc2ccc(-c3ccc(OC(F)(F)F)cc3)cc2CC(=O)O)cc1 [Compound 9, {4-[4-(tert-butyl)benzyloxy]-4′-(trifluoromethoxy)biphenyl-3-yl}acetic acid]	–	–	–	IC50 [1]: 1300 nM; IC50 [2]: 2070 nM
CC(C)(C)c1ccc(Oc2ccc(-c3ccc(OC(F)(F)F)cc3)cc2CCC(=O)O)cc1 [Compound 13, 3-{4-[4-(tert-butyl)phenoxy]-4′-(trifluoromethoxy)biphenyl-3-yl}propanoic acid]	–	–	–	IC50 [1]: 1170 nM; IC50 [2]: 2170 nM; inhibition at 10 µM [2, 5]: > 99%
CC(C)(C)c1ccc(COc2ccc(-c3ccc(OC(F)(F)F)cc3)cc2N(Cc2ccccc2)C(=O)C(=O)O)cc1 [Compound 59, N-benzyl-N-{4-[4-(tert-butyl)benzyloxy]-4′-(trifluoromethoxy)biphenyl-3-yl}oxamic acid]	–	–	–	inhibition at 3 µM ([1]; pH 7.4, read-out: Inhibition Rate of Human PAI-1 Activity (%)): > 99%; inhibition at 3 µM [2, 5]: > 99%; inhibition at 10 µM [2, 5]: > 99%; inhibition at 25 µM [4, 6]: 81%
COc1ccc(COc2ccc(-c3ccc(OC(F)(F)F)cc3)cc2CCC(=O)O)cc1 [Compound 66, 3-[4-(4-methoxybenzyloxy)-4′-(trifluoromethoxy)biphenyl-3-yl]propanoic acid]	15	35	25	–
CC(C)(C)c1ccc(COc2ccc(-c3ccc(OC(F)(F)F)cc3)cc2CCc2nnn[nH]2)cc1 [Compound 69, 5-{2-{4-[4-(tert-butyl)benzyloxy]-4′-(trifluoromethoxy)biphenyl-3-yl}ethyl}-1H-tetrazole]	–	–	–	inhibition at 10 µM [4, 6]: 34%; inhibition at 25 µM [4, 6]: > 99%
CC(C)(C)c1ccc(COc2ccc(-c3cccc(OC(F)(F)F)c3)cc2/C=C/C(=O)O)cc1 [Compound 70, (E)-3-{4-[4-(tert-butyl)benzyloxy]-3′-(trifluoromethoxy)biphenyl-3-yl}propenoic acid]	38	72	93	–
CC(C)(C)c1ccc(COc2ccc(-c3cccc(OC(F)(F)F)c3)cc2CCC(=O)O)cc1 [Compound 71, 3-{4-[4-(tert-butyl)benzyloxy]-3′-(trifluoromethoxy)biphenyl-3-yl}propanoic acid]	49	74	95	–

Second part, led by results:

Inhibition Rate of Human PAI-1 Activity (%) ([4]; compound 5 μM)	Inhibition Rate of Human PAI-1 Activity (%) ([4]; compound 10 μM)	Inhibition Rate of Human PAI-1 Activity (%) ([4]; compound 25 μM)	Structure (SMILES)	also measured
42	72	93	CC(C)(C)c1ccc(COc2ccc(-c3ccccc3OC(F)(F)F)cc2/C=C/C(=O)O)cc1 [Compound 72, (E)-3-{4-[4-(tert-butyl)benzyloxy]-2′-(trifluoromethoxy)biphenyl-3-yl}propenoic acid]	–
52	80	>99	CC(C)(C)c1ccc(COc2ccc(-c3ccccc3OC(F)(F)F)cc2CCC(=O)O)cc1 [Compound 73, 3-{4-[4-(tert-butyl)benzyloxy]-2′-(trifluoromethoxy)biphenyl-3-yl}propanoic acid]	–
37	70	94	CC(C)(C)c1ccc(-c2ccc(OCc3ccccc3OC(F)(F)F)c(CCC(=O)O)c2)cc1 [Compound 74, 3-{4′-(tert-butyl)-4-[2-(trifluoromethoxy)benzyloxy]biphenyl-3-yl}propanoic acid]	–
40	74	95	CC(C)(C)c1ccc(-c2ccc(OCc3cccc(OC(F)(F)F)c3)c(CCC(=O)O)c2)cc1 [Compound 75, 3-{4′-(tert-butyl)-4-[3-(trifluoromethoxy)benzyloxy]biphenyl-3-yl}propanoic acid]	–
47	71	95	CC(C)(C)c1ccc(-c2ccc(OCc3ccc(C(F)(F)F)cc3)c(CCC(=O)O)c2)cc1 [Compound 77, 3-{4′-(tert-butyl)-4-[4-(trifluoromethyl)benzyloxy]biphenyl-3-yl}propanoic acid]	–
51	80	93	CCCCc1ccc(COc2ccc(-c3ccc(C(C)(C)C)cc3)cc2CCC(=O)O)cc1 [Compound 78, 3-[4′-(tert-butyl)-4-(4-butylbenzyloxy)biphenyl-3-yl]propanoic acid]	–
